# Assay results taken from article PMC7614683, “A small molecule PI3Kα activator for cardioprotection and neuroregeneration” (Nature, 2023).
# Biological target: T1, full length p110α/p85α (Homo sapiens, UniProt P42336)
# T1 construct: Full-length human p110α was expressed either in a complex with full-length human p85α (for HTS, biochemistry and HDX-MS); 6xHis tag followed by TEV protease site (N); host or cells: Spodoptera frugiperda Sf9, baculovirus
# Assay: HDX-MS
# Assay type: binding
# Experimental: Sample preparation: HDX-MS experiments were carried out as described previously. […] In total, three biological replicates, i.e. three separate protein preparations, each with exchange experiments carried out in triplicate were conducted. Data presented in the manuscript is a single biological replicate. Data acquisition and analysis were as follows: Each sample was thawed and injected onto an M-Class Acquity UPLC with HDX Technology (Waters) kept at 0.1°C. Proteins were digested in-line using an Enzymate Pepsin Column (Waters, #186007233) at 15°C for 2 min at 200 μl/min. Peptic peptides were then eluted onto an Acquity UPLC BEH C18 Column (Waters, #186002346) equilibrated in Pepsin-A buffer (0.1% formic acid) and separated using a 5-35% gradient of Pepsin-B buffer (0.1% formic acid, 99% acetonitrile) over 7 min at a flowrate of 40 μl/min. Data were collected on a Waters Cyclic IMS, with an electrospray ionisation source, from 50-2000 m/z. Data were collected in the HDMS^E mode. A single pass of the cyclic IMS was conducted. A “blank” sample of protein dilution buffer with quench was run between samples, and carry-over of peptides was routinely monitored. Five replicates were used to identify non-deuterated peptides. Criteria used to include peptides in the HDX-MS dataset were: minimum intensity 5000, minimum sequence length 5, maximum sequence length 25, a minimum of 3 fragment ions, a minimum of 0.1 products per amino acid, a minimum score of 6.62, a maximum MH+ Error of 10 ppm, identification in at least two datasets with a retention time RSD of less than 10%. Data was analysed using Protein Lynx Global Server (Waters) and DynamX (Waters). All peptides were manually inspected for EX1 kinetics and sufficient quality of the peptide envelope. Data quality, experiment design, and reporting of data meets the criteria as determined by the HDX-MS community. Uptake files were created using Baryonyx. Data are available via ProteomeXchange with identifier PXD037721.
# [1] = PK3CA_HUMAN peptide 334-341, time point 1 of 5
# [2] = PK3CA_HUMAN peptide 334-341, time point 2 of 5
# [3] = PK3CA_HUMAN peptide 334-341, time point 3 of 5
# [4] = PK3CA_HUMAN peptide 334-341, time point 4 of 5
# [5] = PK3CA_HUMAN peptide 334-341, time point 5 of 5
# [6] = PK3CA_HUMAN peptide 342-356, time point 1 of 5
# [7] = PK3CA_HUMAN peptide 342-356, time point 2 of 5
# [8] = PK3CA_HUMAN peptide 342-356, time point 3 of 5
# [9] = PK3CA_HUMAN peptide 342-356, time point 4 of 5
# [10] = PK3CA_HUMAN peptide 342-356, time point 5 of 5
# [11] = PK3CA_HUMAN peptide 356-368, time point 1 of 5
# [12] = PK3CA_HUMAN peptide 356-368, time point 2 of 5
# [13] = PK3CA_HUMAN peptide 356-368, time point 3 of 5
# [14] = PK3CA_HUMAN peptide 356-368, time point 4 of 5
# [15] = PK3CA_HUMAN peptide 356-368, time point 5 of 5
# [16] = PK3CA_HUMAN peptide 369-380, time point 1 of 5
# [17] = PK3CA_HUMAN peptide 369-380, time point 2 of 5
# [18] = PK3CA_HUMAN peptide 369-380, time point 3 of 5
# [19] = PK3CA_HUMAN peptide 369-380, time point 4 of 5
# [20] = PK3CA_HUMAN peptide 369-380, time point 5 of 5
# [21] = PK3CA_HUMAN peptide 371-380, time point 1 of 5
# [22] = PK3CA_HUMAN peptide 371-380, time point 2 of 5
# [23] = PK3CA_HUMAN peptide 371-380, time point 3 of 5
# [24] = PK3CA_HUMAN peptide 371-380, time point 4 of 5
# [25] = PK3CA_HUMAN peptide 371-380, time point 5 of 5
# T1 sequence (P42336 whole entry): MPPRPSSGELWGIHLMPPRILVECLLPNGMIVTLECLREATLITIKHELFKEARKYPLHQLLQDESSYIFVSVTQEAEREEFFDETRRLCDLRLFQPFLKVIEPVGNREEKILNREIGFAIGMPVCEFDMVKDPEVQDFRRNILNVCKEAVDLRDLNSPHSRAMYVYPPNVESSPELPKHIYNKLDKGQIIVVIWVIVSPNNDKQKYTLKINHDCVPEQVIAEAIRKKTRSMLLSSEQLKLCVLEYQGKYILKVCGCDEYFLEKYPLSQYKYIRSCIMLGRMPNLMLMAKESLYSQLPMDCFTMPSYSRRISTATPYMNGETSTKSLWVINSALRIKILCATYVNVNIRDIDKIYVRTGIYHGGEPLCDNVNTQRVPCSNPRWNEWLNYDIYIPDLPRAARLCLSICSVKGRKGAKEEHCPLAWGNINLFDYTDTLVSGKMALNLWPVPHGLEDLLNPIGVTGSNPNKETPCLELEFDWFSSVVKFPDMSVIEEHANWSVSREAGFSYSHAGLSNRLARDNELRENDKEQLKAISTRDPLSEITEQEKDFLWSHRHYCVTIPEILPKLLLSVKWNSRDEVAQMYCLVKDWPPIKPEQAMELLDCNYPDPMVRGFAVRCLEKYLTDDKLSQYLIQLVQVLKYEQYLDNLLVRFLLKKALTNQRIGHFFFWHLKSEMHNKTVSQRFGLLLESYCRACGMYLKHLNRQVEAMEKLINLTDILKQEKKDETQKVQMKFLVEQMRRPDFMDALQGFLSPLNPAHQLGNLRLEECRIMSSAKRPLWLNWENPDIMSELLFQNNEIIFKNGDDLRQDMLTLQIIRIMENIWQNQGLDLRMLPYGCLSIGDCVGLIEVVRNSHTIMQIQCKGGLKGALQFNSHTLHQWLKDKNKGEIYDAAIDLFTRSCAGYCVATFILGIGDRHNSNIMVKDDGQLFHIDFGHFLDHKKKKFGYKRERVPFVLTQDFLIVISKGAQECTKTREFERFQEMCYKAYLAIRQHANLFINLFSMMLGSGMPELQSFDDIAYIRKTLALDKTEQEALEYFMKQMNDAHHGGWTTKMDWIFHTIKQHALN
# T1 sequence (P27986 whole entry partner): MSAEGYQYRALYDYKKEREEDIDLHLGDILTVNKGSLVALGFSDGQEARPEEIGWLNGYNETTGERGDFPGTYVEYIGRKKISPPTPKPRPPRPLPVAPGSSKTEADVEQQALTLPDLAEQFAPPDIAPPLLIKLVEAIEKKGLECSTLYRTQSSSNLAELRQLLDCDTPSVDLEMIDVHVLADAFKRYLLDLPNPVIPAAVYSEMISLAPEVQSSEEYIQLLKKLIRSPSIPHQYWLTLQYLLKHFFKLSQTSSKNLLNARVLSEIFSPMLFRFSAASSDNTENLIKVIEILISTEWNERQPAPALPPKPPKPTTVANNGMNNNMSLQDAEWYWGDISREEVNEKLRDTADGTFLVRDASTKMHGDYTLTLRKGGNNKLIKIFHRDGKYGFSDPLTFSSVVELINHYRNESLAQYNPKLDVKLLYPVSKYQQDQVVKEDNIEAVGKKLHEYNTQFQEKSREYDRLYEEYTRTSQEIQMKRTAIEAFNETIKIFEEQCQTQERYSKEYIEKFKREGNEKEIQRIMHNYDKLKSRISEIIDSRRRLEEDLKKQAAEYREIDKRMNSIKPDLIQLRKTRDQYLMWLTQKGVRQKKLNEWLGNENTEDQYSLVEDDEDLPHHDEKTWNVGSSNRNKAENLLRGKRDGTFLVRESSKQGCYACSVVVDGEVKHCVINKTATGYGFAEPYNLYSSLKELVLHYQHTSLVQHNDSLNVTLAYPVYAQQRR
smiles,measurement,setting,value
CCN1CCN(c2ccc(Nc3cc(Nc4cccc5c4N(C(C)=O)CC5)ccn3)cc2)CC1 [Compound 1938],HDX difference (Da),"PK3CA_HUMAN peptide 326-333, time point 5 of 5",-0.29 Da
same,HDX difference (%D),[1],-1.6%
same,HDX difference (Da),[1],-0.11 Da
same,HDX difference (%D),[2],-0.186%
same,HDX difference (Da),[2],-0.013 Da
same,HDX difference (%D),[3],-0.0541%
same,HDX difference (Da),[3],-0.00379 Da
same,HDX difference (%D),[4],0.367%
same,HDX difference (Da),[4],0.0257 Da
same,HDX difference (%D),[5],0.162%
same,HDX difference (Da),[5],0.0113 Da
same,HDX difference (%D),[6],-1.7%
same,HDX difference (Da),[6],-0.24 Da
same,HDX difference (%D),[7],0.845%
same,HDX difference (Da),[7],0.12 Da
same,HDX difference (%D),[8],0.00161%
same,HDX difference (Da),[8],0.000225 Da
same,HDX difference (%D),[9],1.1%
same,HDX difference (Da),[9],0.16 Da
same,HDX difference (%D),[10],0.6%
same,HDX difference (Da),[10],0.09 Da
same,HDX difference (%D),[11],-0.8%
same,HDX difference (Da),[11],-0.10 Da
same,HDX difference (%D),[12],-1.0%
same,HDX difference (Da),[12],-0.12 Da
same,HDX difference (%D),[13],0.8%
same,HDX difference (Da),[13],0.09 Da
same,HDX difference (%D),[14],0.0672%
same,HDX difference (Da),[14],0.00807 Da
same,HDX difference (%D),[15],0.6%
same,HDX difference (Da),[15],0.0745 Da
same,HDX difference (%D),[16],-2.7%
same,HDX difference (Da),[16],-0.30 Da
same,HDX difference (%D),[17],1.2%
same,HDX difference (Da),[17],0.14 Da
same,HDX difference (%D),[18],-1.1%
same,HDX difference (Da),[18],-0.12 Da
same,HDX difference (%D),[19],-0.8%
same,HDX difference (Da),[19],-0.08 Da
same,HDX difference (%D),[20],0.6%
same,HDX difference (Da),[20],0.07 Da
same,HDX difference (%D),[21],-3.7%
same,HDX difference (Da),[21],-0.33 Da
same,HDX difference (%D),[22],-0.454%
same,HDX difference (Da),[22],-0.04 Da
same,HDX difference (%D),[23],-1.7%
same,HDX difference (Da),[23],-0.15 Da
same,HDX difference (%D),[24],-2.6%
same,HDX difference (Da),[24],-0.23 Da
same,HDX difference (%D),[25],0.329%
same,HDX difference (Da),[25],0.03 Da
same,"HDX difference, percentage","PK3CA_HUMAN peptide 457-466, time column 1 of 5, deuterium exchange time 0.005",-0.467%
same,"HDX difference, percentage","PK3CA_HUMAN peptide 457-466, time column 2 of 5, deuterium exchange time 0.05",-0.449%
same,"HDX difference, percentage","PK3CA_HUMAN peptide 457-466, time column 3 of 5, deuterium exchange time 0.5",0.346%
same,"HDX difference, percentage","PK3CA_HUMAN peptide 457-466, time column 4 of 5, deuterium exchange time 5",-0.9%
same,"HDX difference, percentage","PK3CA_HUMAN peptide 457-466, time column 5 of 5",-1.0%
same,"HDX difference, percentage","PK3CA_HUMAN peptide 467-476, time column 1 of 5, deuterium exchange time 0.005",-1.4%
same,"HDX difference, percentage","PK3CA_HUMAN peptide 467-476, time column 2 of 5, deuterium exchange time 0.05",-0.5%
same,"HDX difference, percentage","PK3CA_HUMAN peptide 467-476, time column 3 of 5, deuterium exchange time 0.5",-0.7%
same,"HDX difference, percentage","PK3CA_HUMAN peptide 467-476, time column 4 of 5, deuterium exchange time 5",-0.9%
same,"HDX difference, percentage","PK3CA_HUMAN peptide 467-476, time column 5 of 5",-0.552%
same,"HDX difference, percentage","PK3CA_HUMAN peptide 477-486, time column 1 of 5, deuterium exchange time 0.005",-1.6%
same,"HDX difference, percentage","PK3CA_HUMAN peptide 477-486, time column 2 of 5, deuterium exchange time 0.05",0.186%
same,"HDX difference, percentage","PK3CA_HUMAN peptide 477-486, time column 3 of 5, deuterium exchange time 0.5",0.327%
same,"HDX difference, percentage","PK3CA_HUMAN peptide 477-486, time column 4 of 5, deuterium exchange time 5",-0.0919%
same,"HDX difference, percentage","PK3CA_HUMAN peptide 477-486, time column 5 of 5",0.0363%
same,"HDX difference, percentage","PK3CA_HUMAN peptide 487-495, time column 1 of 5, deuterium exchange time 0.005",-0.747%
same,"HDX difference, percentage","PK3CA_HUMAN peptide 487-495, time column 2 of 5, deuterium exchange time 0.05",0.4%
same,"HDX difference, percentage","PK3CA_HUMAN peptide 487-495, time column 3 of 5, deuterium exchange time 0.5",0.0115%
same,"HDX difference, percentage","PK3CA_HUMAN peptide 487-495, time column 4 of 5, deuterium exchange time 5",-0.8%
same,"HDX difference, percentage","PK3CA_HUMAN peptide 487-495, time column 5 of 5",-0.2%
same,"HDX difference, percentage","PK3CA_HUMAN peptide 487-498, time column 1 of 5, deuterium exchange time 0.005",-0.239%
same,"HDX difference, percentage","PK3CA_HUMAN peptide 487-498, time column 2 of 5, deuterium exchange time 0.05",-0.449%
same,"HDX difference, percentage","PK3CA_HUMAN peptide 487-498, time column 3 of 5, deuterium exchange time 0.5",0.176%
same,"HDX difference, percentage","PK3CA_HUMAN peptide 487-498, time column 4 of 5, deuterium exchange time 5",-1.0%
